Reference: patent US8497133B1, “Terpene media compositions for eluting compounds from matrices and methods for making and using them” (Medtronic MiniMed, Inc., priority 2009, dated 2013)
Read-outs that look alike come from different tables or passages of the source.

Columns and labels:
[1] = cited from earlier work
[2] = Elution of steroid from drug eluting leads/electrodes in conventional media (PBS without additives); assay type: physicochemical; conditions: conventional media systems, e.g. media with just a surfactant; result in words
From the text: The percent elution was less than 7% in 10 days from the controlled-release device (CRD) leads when PBS ([…]) without any additives was used.

[3] = assay type: physicochemical
Description: To evaluate buffers with different pH, Dexamethasone sodium phosphate can be dissolved in an elution media (e.g. one of the different embodiments of the invention disclosed herein). […] This concentration was about 10 times the concentration that might be observed if the drug from the typical device was completely eluted in about 75 mL of media.

SMILES | solubility in water [1] [g/100 mL] | elution in conventional media/solvents [2] | stability with respect to pH (order) [3] | solubility in water ([1]; result in words, listed as dexamethasone sodium phosphate) | solubility in water ([1]; result in words)
OCc1ccccc1 [Benzyl alcohol, Phenylmethanol] | 4 | – | – | – | –
C[C@@H]1C[C@H]2[C@@H]3CCC4=CC(=O)C=C[C@]4(C)[C@@]3(F)[C@@H](O)C[C@]2(C)[C@@]1(O)C(=O)COP(=O)(O)O [Dexamethasone sodium phosphate] | – | minimal | pH 4>pH 7.5>pH 9 | water soluble | freely soluble
